For assay [1], the system named is GLP-1-producing cell strain GLUTag. In words: Function to promote secretion of GLP-1 from GLUTag cells. Type of assay: cell-based, mouse. Particulars: incubation 37° C. for 60 minutes, GLP-1 in supernatant by Enzyme immuno assay, vs Hepes B buffer control, FIGS. 2 and 3. The method, then:
A GLP-1-producing cell strain GLUTag derived from the mouse large intestine was cultured in a Dulbecco's modified Eagle's medium supplemented with 10% FBS at 37° C. in the presence of 5% CO2. The GLUTag cells were cultured in a 48-well plate for 2 to 3 days until the cells reached a subconfluent state. Prior to the addition of each of samples, the wells were washed with a Hepes B buffer (140 mM NaCl, 4.5 mM KCl, 20 mM Hepes, 1.2 mM CaCl2, 1.2 mM MgCl2, 10 mM D-glucose, 0.1% BSA, pH 7.4), 80 μl of a sample solution obtained by dissolving each of the samples in the same buffer were added to the wells, and incubation was performed at 37° C. for 60 minutes. γ-Glu-Cys-Gly and cinacalcet were used as the samples. Further, the Hepes B buffer was used as a control. After supernatant collection, the cells were precipitated by centrifugation (800×g, 5 minutes, 4° C.), and 70 μl of the supernatant were collected and cryopreserved. The concentration of GLP-1 in the supernatant was measured with a commercially available Enzyme immuno assay kit (Yanaihara Institute Inc.).
In the same manner as in Example 2, a function to promote the secretion of GLP-1 was examined using a GLP-1-producing cell strain GLUTag. γ-Glu-Cys and protamine were used as samples.

The test system of assay [2] is CCK-producing cell strain STC-1. Briefly: Function to promote secretion of CCK from STC-1 cells. Type of assay: cell-based, mouse. The settings on record: incubation 37° C. for 60 minutes, CCK in supernatant by Enzyme immuno assay, vs Hepes B buffer control, FIG. 1. The method, then:
A CCK-producing cell strain STC-1 derived from the mouse small intestine was cultured in a Dulbecco's modified Eagle's medium supplemented with 10% FBS at 37° C. in the presence of 5% CO2. The STC-1 cells were cultured in a 48-well plate for 2 to 3 days until the cells reached a subconfluent state. Prior to the addition of each of the samples, the wells were washed with a Hepes B buffer (140 mM NaCl, 4.5 mM KCl, 20 mM Hepes, 1.2 mM CaCl2, 1.2 mM MgCl2, 10 mM D-glucose, 0.1% BSA, pH 7.4), […] of a sample solution obtained by dissolving each of the samples in the same buffer were added to the wells, and incubation was performed at 37° C. for 60 minutes. γ-Glu-Cys-Gly (Sigma-Aldrich Japan K.K.), γ-Glu-Val-Gly, and cinacalcet were used as the samples. Further, the Hepes B buffer was used as a control. After supernatant collection, the cells were precipitated by centrifugation (800×g, 5 minutes, 4° C.), and 80 μl of the supernatant were collected and cryopreserved.
After the supernatant had been pretreated with an OASIS cartridge (C18), the concentration of CCK in the supernatant was measured with an Enzyme immuno assay kit (Phoenix Pharmaceuticals).

The subject of assay [3] is calcium receptor. The settings on record: shown in WO 2007/055388, WO 2007/055393, WO 2008/139945-7; J. Biol. Chem. 2006; cited from earlier work.
The test system of assay [4] is male SD rats. Briefly: Oral glucose tolerance test in rats. Particulars: rat, oral 160 mg/kg with glucose 2 g/kg, at 15 and 30 minutes after glucose administration, compared to glucose solution alone; FIG. 5. Type of assay: in vivo. As to the method: After male SD rats (7-week-old) had been preliminarily fed (for 3 to 4 days), and fasted overnight, they were subjected to an oral glucose tolerance test. Tail vein blood before specimen administration was collected, and a sample [glucose solution alone (2 g/kg weight)/glucose solution comprising γ-Glu-Cys (160 mg/kg weight)] was orally administered with a feeding tube. After sample administration, tail vein blood was collected at 15, 30, 60, 90, and 120 minutes, and the plasma glucose concentration was measured with a commercially available kit (manufactured by Wako Pure Chemical Industries, Ltd.).

The test system of assay [5] is male SD rats. Briefly: GLP-1 secretion test in rats (ligated ileal loop). In kind it is in vivo. The settings on record: rat, 20 mg/2 mL deionized water into ligated ileum loop, ileal mesenteric vein blood 30-120 minutes, compared to water administration group; FIG. 4. The method, then: After male SD rats (8-week-old) had been preliminarily fed, fasted overnight, and subjected to celiotomy under ketamine/xylazine anesthesia. GLP-1-producing cells are mainly distributed in an ileal site. Thus, after a ligated ileal loop (30 cm) had been prepared, a catheter was placed into the ileal mesenteric vein, and blood was collected from the catheter at the time of 0 minute (0 time). A sample (2 mL of deionized water, 20 mg of γ-Glu-Cys/2 mL of deionized water) was administered into the ligated ileum loop, blood was collected at 30, 60, 90, and 120 minutes after administration, respectively, and the plasma GLP-1 concentration was measured with an Enzyme immuno assay kit (manufactured by Yanaihara Institute Inc.).

*1 amine or outer side, *2 acyl side, *3 side chain or, on linkers, in order; H or OH if unused. Where no end group is shown, it is not given here. [ ]: non-standard residue; d: D form. γGlu = O=C(O)[C@H](CCC(=O)[*:2])N[*:1]; Met(O) = CS(=O)CC[C@H](N)C(=O)O

Take `C[C@@H](NCCCc1cccc(C(F)(F)F)c1)c1cccc2ccccc12` [cinacalcet, (R)-N-(3-(3-(trifluoromethyl)phenyl)propyl)-1-(1-naphthyl)ethylamine, reference compound]: in assay [1], the “promotion of secretion of GLP-1” value was “functioned to promote the secretion of GLP-1”. The “promotion of secretion of CCK” value in assay [2] was “functioned to promote the secretion of CCK”. Consider `N[C@@H](CCC(=O)N[C@@H](CS)C(=O)NCC(=O)O)C(=O)O` [γ-Glu-Cys-Gly], for which, in assay [3], the calcium receptor activation entry is listed as “is a calcium receptor activator”. In addition, in assay [1], the “promotion of secretion of GLP-1” value is given as “functioned to promote the secretion of GLP-1”. In addition, the “promotion of secretion of CCK” value in assay [2] is recorded as “functioned to promote the secretion of CCK”. Take Asp-Gly: the calcium receptor activation result in assay [3] is listed as “activate a calcium receptor”. For Cys-Gly, the calcium receptor activation entry in assay [3] is on record as “activate a calcium receptor”. On to Cys-Met, for which the calcium receptor activation result in assay [3] is on record as “activate a calcium receptor”.

Regarding Glu-Cys, the calcium receptor activation entry in assay [3] is reported as “activate a calcium receptor”. For the compound Gly-Cys, the calcium receptor activation result in assay [3] is given as “activate a calcium receptor”.

Leu-Asp: the calcium receptor activation entry in assay [3] is recorded as “activate a calcium receptor”.

For the compound [γGlu]-Ala, the calcium receptor activation entry in assay [3] is given as “activate a calcium receptor”.

As for [γGlu]-Cys, the blood glucose concentration result in assay [4] is reported as “significantly lower blood glucose concentration value”. The calcium receptor activation entry in assay [3] is listed as “activate a calcium receptor”. For the same compound, in assay [1], the “promotion of secretion of GLP-1” value is given as “functioned to promote the secretion of GLP-1”. For the same compound, the “plasma GLP-1 concentration” value in assay [5] was “significantly higher elevation of plasma GLP-1 concentration”. With [γGlu]-Gly, in assay [3], the calcium receptor activation entry is given as “activate a calcium receptor”. As for [γGlu]-Ile, the calcium receptor activation entry in assay [3] is on record as “activate a calcium receptor”. In the case of [γGlu]-Leu, the calcium receptor activation entry in assay [3] is “activate a calcium receptor”.

[γGlu]-Met: in assay [3], the calcium receptor activation entry was “activate a calcium receptor”.

As to [γGlu]-Ser, the calcium receptor activation entry in assay [3] is reported as “activate a calcium receptor”. [γGlu]-Thr: in assay [3], the calcium receptor activation entry was “activate a calcium receptor”. In the case of [γGlu]-Val, the calcium receptor activation result in assay [3] is “activate a calcium receptor”. As to [γGlu]-Val-Gly, the “promotion of secretion of CCK” value in assay [2] was “functioned to promote the secretion of CCK”. In the case of [γGlu]-Val-NH2, the calcium receptor activation entry in assay [3] was “activate a calcium receptor”.

As for [γGlu]-[Met(O)], in assay [3], the calcium receptor activation entry is on record as “activate a calcium receptor”. Consider [γGlu]-[γGlu]-Val, for which, in assay [3], the calcium receptor activation result is “activate a calcium receptor”. protamine: the “promotion of secretion of GLP-1” value in assay [1] is “functioned to promote the secretion of GLP-1”. γ-Glu-Cys(S-Me): the calcium receptor activation entry in assay [3] was “activate a calcium receptor”. On to γ-Glu-Cys(S-Me)(O), for which, in assay [3], the calcium receptor activation entry is listed as “activate a calcium receptor”.

In the case of γ-Glu-Orn, the calcium receptor activation result in assay [3] is recorded as “activate a calcium receptor”.

Consider γ-Glu-Tau, for which the calcium receptor activation result in assay [3] is listed as “activate a calcium receptor”. Turning to γ-Glu-Val-ol, in assay [3], the calcium receptor activation entry was “activate a calcium receptor”. For the compound γ-Glu-t-Leu, the calcium receptor activation entry in assay [3] is recorded as “activate a calcium receptor”.

Source of the values: patent publication US20110046046A1, “PROPHYLACTIC OR THERAPEUTIC COMPOSITION FOR DIABETES OR OBESITY” (priority 2008, published 2011).
